Laboratory results published in PubChem BioAssay (NCI).
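A five-concentration, 48-hour dose response in 96-well plates underlies each endpoint, interpolated linearly between surrounding concentrations. The concentration for 50% growth inhibition is given as GI50. The concentration for full growth arrest is given as TGI.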

Key:
Assay in all cases: NCI tumour cell line growth inhibition, 48 h
[1] = test system: NCI-H460 lung
[2] = test system: MCF7 breast
[3] = test system: A498 renal
[4] = test system: NCI-H226 lung
[5] = test system: KM12 colon
[6] = test system: SNB-19 CNS
[7] = test system: RPMI-8226 leukemia
[8] = test system: SR leukemia
[9] = test system: HOP-62 NSCLC
[10] = test system: CCRF-CEM leukemia
[11] = test system: SF-539 CNS
[12] = test system: SW-620 colon
[13] = test system: HOP-92 NSCLC
[14] = test system: DU-145 prostate
[15] = test system: HCT-15 colon
[16] = test system: SK-MEL-28 melanoma
[17] = test system: OVCAR-8 ovarian
[18] = test system: CAKI-1 renal
[19] = test system: 786-0 renal
[20] = test system: NCI-H23 lung
[21] = test system: MDA-MB-231 breast
[22] = test system: UACC-257 melanoma
[23] = test system: IGROV1 ovarian
[24] = test system: BT-549 breast
[25] = test system: SK-OV-3 ovarian
[26] = test system: RXF 393 renal
[27] = test system: MALME-3M melanoma
[28] = test system: MDA-MB-435
[29] = test system: SNB-75 CNS
[30] = test system: UACC-62 melanoma
[31] = test system: OVCAR-5 ovarian
[32] = test system: ACHN renal
[33] = test system: OVCAR-3 ovarian
[34] = test system: NCI/ADR-RES ovarian
[35] = test system: HS 578T breast
[36] = test system: HCT-116 colon
[37] = test system: SK-MEL-2 melanoma
[38] = test system: NCI-H522 lung
[39] = test system: SF-268 CNS
[40] = test system: PC-3 prostate
[41] = test system: UO-31 renal
[42] = test system: K-562 leukemia
[43] = test system: HCC-2998 colon
[44] = test system: SF-295 CNS
[45] = test system: SN12C renal
[46] = test system: T-47D breast
[47] = test system: TK-10 renal
[48] = test system: A549 NSCLC
[49] = test system: OVCAR-4 ovarian
[50] = test system: COLO 205 colon
[51] = test system: MOLT-4 leukemia
[52] = test system: LOX IMVI melanoma
[53] = test system: U251 CNS
[54] = test system: SK-MEL-5 melanoma
[55] = test system: M14 melanoma
[56] = test system: HT29 colon

## Cc1nc2ccc(Nc3nc(Cl)nc(N4CCOCC4)n3)cc2n1Cc1ccccc1
[1]
  GI50: 11.9 µM
  TGI: > 100 µM
[2]
  GI50: 18.4 µM
  TGI: > 100 µM
[3]
  GI50: 2.85 µM
  TGI: > 100 µM
[4]
  GI50: 7.88 µM
  TGI: 48.9 µM
[5]
  GI50: > 100 µM
  TGI: > 100 µM
[6]
  GI50: 18.2 µM
  TGI: > 100 µM
[7]
  GI50: 97.2 µM
  TGI: > 100 µM
[8]
  GI50: 2.83 µM
  TGI: > 100 µM
[9]
  GI50: 16.2 µM
  TGI: > 100 µM
[10]
  GI50: 2.93 µM
  TGI: > 100 µM
[11]
  GI50: 14.2 µM
  TGI: 47.6 µM
[12]
  GI50: 3.1 µM
  TGI: > 100 µM
[13]
  GI50: 2.07 µM
  TGI: 6.36 µM
[14]
  GI50: 28.1 µM
  TGI: > 100 µM
[15]
  GI50: 2.94 µM
  TGI: 14.1 µM
[16]
  GI50: 1.75 µM
  TGI: 3.29 µM
[17]
  GI50: 2.95 µM
  TGI: > 100 µM
[18]
  GI50: 20.2 µM
  TGI: > 100 µM
[19]
  GI50: 11.7 µM
  TGI: > 100 µM
[20]
  GI50: 1.94 µM
  TGI: 3.92 µM
[21]
  GI50: 2.22 µM
  TGI: 9.44 µM
[22]
  GI50: 5.93 µM
  TGI: > 100 µM
[23]
  GI50: 2.58 µM
  TGI: 6.41 µM
[24]
  GI50: 2.89 µM
  TGI: 29.4 µM
[25]
  GI50: 3.66 µM
  TGI: > 100 µM
[26]
  GI50: 1.85 µM
  TGI: 3.58 µM
[27]
  GI50: 5.24 µM
  TGI: 24.5 µM
[28]
  GI50: 8.23 µM
  TGI: > 100 µM
[29]
  GI50: 4.47 µM
  TGI: 29.6 µM
[30]
  GI50: 3.43 µM
  TGI: 22.9 µM
[31]
  GI50: > 100 µM
  TGI: > 100 µM
[32]
  GI50: 9.35 µM
  TGI: 28.7 µM
[33]
  GI50: 4.19 µM
  TGI: 36 µM
[34]
  GI50: 4.43 µM
  TGI: > 100 µM
[35]
  GI50: 4.67 µM
  TGI: > 100 µM
[36]
  GI50: 5.16 µM
  TGI: 89 µM
[37]
  GI50: 3.54 µM
  TGI: 26 µM
[38]
  GI50: 2.98 µM
  TGI: 20.8 µM
[39]
  GI50: 3.11 µM
  TGI: > 100 µM
[40]
  GI50: 10 µM
  TGI: > 100 µM
[41]
  GI50: 8.89 µM
  TGI: > 100 µM
[42]
  GI50: 2.82 µM
  TGI: > 100 µM
[43]
  GI50: 2.05 µM
  TGI: 3.85 µM
[44]
  GI50: 11.9 µM
  TGI: 82 µM
[45]
  GI50: 6.79 µM
  TGI: 88 µM
[46]
  GI50: 3.27 µM
  TGI: > 100 µM
[47]
  GI50: 35.8 µM
  TGI: > 100 µM
[48]
  GI50: 50.3 µM
  TGI: > 100 µM

## CC(C)(C)c1ccc(S(=O)(=O)Oc2ccc3c4c(c(=O)oc3c2)CCCCC4)cc1
[1]
  GI50: 7.3 µM
  TGI: > 100 µM
[49]
  GI50: 8.13 µM
  TGI: 40.7 µM
[2]
  GI50: 18.2 µM
  TGI: > 100 µM
[3]
  GI50: 6.53 µM
  TGI: 36.3 µM
[4]
  GI50: 9.94 µM
  TGI: > 100 µM
[50]
  GI50: 14.4 µM
  TGI: > 100 µM
[5]
  GI50: > 100 µM
  TGI: > 100 µM
[6]
  GI50: 16.4 µM
  TGI: 52.1 µM
[7]
  GI50: 3.18 µM
  TGI: > 100 µM
[51]
  GI50: > 100 µM
  TGI: > 100 µM
[52]
  GI50: 32.5 µM
  TGI: > 100 µM
[9]
  GI50: 21.5 µM
  TGI: 46.2 µM
[10]
  GI50: > 100 µM
  TGI: > 100 µM
[53]
  GI50: 12.5 µM
  TGI: 54.4 µM
[11]
  GI50: 24.2 µM
  TGI: > 100 µM
[54]
  GI50: 5.48 µM
  TGI: 85.4 µM
[12]
  GI50: 85.6 µM
  TGI: > 100 µM
[13]
  GI50: 1.22 µM
  TGI: 12.2 µM
[14]
  GI50: 37.9 µM
  TGI: > 100 µM
[15]
  GI50: 7.92 µM
  TGI: > 100 µM
[16]
  GI50: 24.1 µM
  TGI: > 100 µM
[17]
  GI50: 21.8 µM
  TGI: > 100 µM
[18]
  GI50: 10.9 µM
  TGI: 43.5 µM
[19]
  GI50: 25.3 µM
  TGI: > 100 µM
[20]
  GI50: 13.5 µM
  TGI: > 100 µM
[21]
  GI50: 15.2 µM
  TGI: 49.3 µM
[22]
  GI50: 7.46 µM
  TGI: > 100 µM
[23]
  GI50: 14.9 µM
  TGI: 48.5 µM
[24]
  GI50: 17.7 µM
  TGI: > 100 µM
[25]
  GI50: 19.7 µM
  TGI: 52.2 µM
[55]
  GI50: 20.4 µM
  TGI: > 100 µM
[26]
  GI50: 17.8 µM
  TGI: 63.5 µM
[27]
  GI50: 24.8 µM
  TGI: 76.5 µM
[28]
  GI50: 34.6 µM
  TGI: > 100 µM
[29]
  GI50: 13.3 µM
  TGI: 36.8 µM
[30]
  GI50: 3.19 µM
  TGI: 33.6 µM
[31]
  GI50: 37 µM
  TGI: > 100 µM
[32]
  GI50: 14.4 µM
  TGI: 34.6 µM
[33]
  GI50: 18.4 µM
  TGI: > 100 µM
[34]
  GI50: 13.9 µM
  TGI: > 100 µM
[35]
  GI50: 15.2 µM
  TGI: 74.3 µM
[36]
  GI50: 7.06 µM
  TGI: > 100 µM
[37]
  GI50: 16.5 µM
  TGI: 55.6 µM
[38]
  GI50: 19.2 µM
  TGI: > 100 µM
[39]
  GI50: 39.7 µM
  TGI: > 100 µM
[40]
  GI50: 2.22 µM
  TGI: > 100 µM
[41]
  GI50: 12.7 µM
  TGI: 44 µM
[56]
  GI50: 7.95 µM
  TGI: > 100 µM
[43]
  GI50: > 100 µM
  TGI: > 100 µM
[44]
  GI50: 20.9 µM
  TGI: > 100 µM
[45]
  GI50: 29.3 µM
  TGI: > 100 µM
[46]
  GI50: 5.17 µM
  TGI: > 100 µM
[47]
  GI50: 18.1 µM
  TGI: 36.4 µM
[48]
  GI50: 14.2 µM
  TGI: 39.8 µM
